The values below come from patent US8252945B2, “Protective agent for retinal neuronal cell comprising indazole derivative as active ingredient” (UBE Industries, Ltd., priority 2005, dated 2012).

Turning to `CC(C)(N)c1ccc(-c2ccc3[nH]ncc3c2[N+](=O)[O-])cc1.Cl`, the melting point (commonly the temperature, or range, at which the solid turns liquid) was 255 to 261 °C (dec.).

Turning to `CN(C)c1c(-c2ccc(C(C)(C)N)cc2)ccc2[nH]ncc12.Cl.Cl.Cl`, the melting point is 219 to 224 °C (dec.).

`CC(C)(N)c1ccc(-c2ccc3[nH]ncc3c2C2CC2)nc1.Cl.Cl.Cl`: the melting point was 209 to 213 °C (dec.).

In the case of `CC(C)(N)c1ccc(-c2ccc3[nH]ncc3c2C#N)cc1.Cl`, the melting point was in the range of 270 to 272 °C.

As for `COc1c(-c2ccc(C(C)(C)N)cc2)ccc2[nH]ncc12.Cl.Cl`, the melting point is 258 to 261 °C (dec.).

As to `CC(C)(N)c1ccc(-c2ccc3[nH]ncc3c2OC(F)F)nc1.Cl.Cl.Cl`, the melting point was 170 to 173 °C.

With `CC(C)(N)c1ccc(-c2ccc3[nH]ncc3c2-c2ccno2)cc1.Cl.Cl`, the melting point was 256 to 258 °C (dec.).

For the compound `CN(C)/C=C/C(=O)c1c(-c2ccc(C(C)(C)NC(=O)OC(C)(C)C)cc2)ccc2nn(C3CCCCO3)cc12` (centres unmarked) [Compound 14, 5-[4-(1-tert-butoxycarbonylamino-1-methylethyl)phenyl]-4-(3-dimethylaminoacryloyl)-2-(tetrahydropyran-2-yl)-2H-indazole], the melting point lay in the range of 191 to 194 °C.
